How the values were obtained:
[1] = system: infant foreskin fibroblasts; test: Fibroblast chemotaxis in modified Boyden chambers (incl. checkerboard and deactivation studies); assay type: cell-based, human; settings: for Mean Fibroblasts per 20 OIF + SEM: Experiment 1, lower compartment: TGF-β1 50 pg/ml, peptide 368-374 1.4 × 10^-5 M, peptide 364-378 6.7 × 10^-7 M, fibronectin 20 μg/ml; for fibroblast chemotaxis / migration (in words): peptide in lower compartment of modified Boyden chamber
Description: Target cells used in in vitro chemotaxis assays were infant foreskin fibroblasts obtained by establishing monolayer cultures from explants of tissue. Cells were maintained in Eagle's minimum essential medium (MEM) supplemented with non-essential amino acids, antibiotics, 50 ug/ml ascorbic acid, and 9% fetal calf serum (FCS). Cells were passaged by trypsinization every 3-5 days.
Infant foreskin fibroblasts were harvested from monolayer culture by gentle trypsinization, washed twice in serum-free Eagles's MEM and adjusted to a final concentration of 250,000 cells/ml. The cell suspension (0.4 ml) was added to the upper compartments of blind well modified Boyden chemotaxis chambers. The peptides of the invention being assayed for chemotactic activity were solubilized in glycylglycine (0.015M) buffered NaCl (0.14M), pH 7.2, hereinafter referred to as GGBS, and diluted 50% with serum-free MEM. Test substances were added to the lower compartment of the chemotaxis chambers. Gelatin-treated polycarbonate filters (8 micron pore size) were interposed between the lowest compartment and the upper cell compartment. Loaded chambers were incubated at 37° C. in a humidified atmosphere containing 5% CO2 for 150 minutes. After incubation, the chambers were disassembled, the filters removed, stained with hematoxylin, and mounted on glass cover slips. Fibroblast chemotaxis was quantitated by counting the number of fibroblasts in 20 oil immersion fields (OIF) that migrated and adhered to the lower surface of each filter. Samples were tested in quadruplicate and results are expressed as mean number of fibroblasts per 20 OIF±standard error of the mean (SEM). Chemotaxis neutralization studies were performed by adding TGF-β1 or fibronectin to the upper cell compartment and testing for effects on fibroblast migration to the TGF-β peptides.
Zigmond-Hirsch checkerboard analysis (Zigmond & Hirsch, J. Exptl. Med. 137:387, 1972) was performed to determine whether the 7-mer peptide 368-374 (Val Tyr Tyr Val Gly Arg Lys) induced chemotaxis of fibroblasts, monocytes and neutrophils.
Deactivation studies were utilized to determine whether the peptides of the invention containing the 7-mer peptide amino acid sequence induced chemotaxis via cellular receptors and mechanisms utilized by intact TGF-β.

[2] = system: human peripheral blood monocytes; test: Monocyte chemotaxis in modified Boyden chambers; assay type: cell-based; settings: peptide in lower compartment of modified Boyden chamber
Description: (§1) Human peripheral blood neutrophils and monocytes, isolated from whole blood using standard techniques may also be used in the chemotaxis assays, in a manner similar to infant foreskin fibroblasts, to measure the chemotactic activity of the peptides towards inflammatory cells. Such cells may also be maintained in supplemented MEM as above, to which 5-10% FCS may be added. When using neutrophils and monocytes, instead of fibroblasts, the polycarbonate filters used in the modified Boyden chambers had pore sizes of 2 and 3 microns, respectively. As above, all assays were carried out in quadruplicate.
The following 7-mer peptides (peptides 368-374, corresponding to amino acids 368-374 of human TGF-β1): VYYVGRK (SEQ ID NO. 1), LYYIGKT (SEQ ID NO. 2), LYYVGRT (SEQ ID NO. 3), IYYVGRN (SEQ ID NO. 4) and IYYVGRT (SEQ ID NO. 5) were synthesized by the Merrifield technique, purified by HPLC, and tested at different concentrations in the same assay for their ability to stimulate chemotaxis of human peripheral blood monocytes in vitro modified Boyden chambers.

[3] = system: Human peripheral blood neutrophils; test: Neutrophil chemotaxis in modified Boyden chambers; assay type: cell-based; settings: peptide in lower compartment of modified Boyden chamber
Description: as §1

[4] = system: infant foreskin fibroblasts; test: Collagen production by fibroblasts (modified Peterofsky-Diegelman assay); assay type: cell-based, human; settings: [3H]proline incorporation into collagenase-sensitive protein
Description: The peptides of the invention were also found to stimulate collagen production by fibroblasts. Collagen production by fibroblasts in response to the peptides of the present invention was measured utilizing a modified Peterofsky-Diegelman assay. The assay is used to determine whether the peptides of the invention stimulate or inhibit collagen production by fibroblasts.
Low passage (4-12 subpassages) infant foreskin fibroblasts were plated out at a density of 10^5 cells/well in Falcon 3008 multiwell plates in complete maintenance medium containing 10% FCS. After cells reached confluency (72 hr), the medium was changed daily for 3 days, each time being replaced with serum-free maintenance medium containing fresh ascorbic acid. Samples (50 μl) were added to triplicate wells containing 450 μl serum-free MEM supplemented with fresh ascorbic acid and [^3 H]-proline (sp. act. 20 Ci/mmole), but no non-essential amino acids. After an additional 24 hr of culture, supernatants were reacted with protease-free bacterial collagenase to digest all collagen. Similar aliquots of unreacted supernatants and bacterial collagenase-treated supernatants were precipitated with cold 10% trichloroacetic acid (TCA) and were centrifuged for 5 minutes in a Beckman microfuge. Aliquots of the supernatants, after TCA precipitated proteins were pelleted, were placed in vials containing Hydrofluor and then were counted in a scintillation counter. CPM from TCA precipitated supernatants not reacted with bacterial collagenase were subtracted from each culture. The resulting CPM was a reflection of the collagen produced by that culture.
A modified Peterofsky-Diegelmann assay was used to screen peptide samples for their ability to stimulate or inhibit collagen production. Low passage (4-12 subpassages) infant foreskin fibroblast were plated out at a density of 10^5 cells/well of Falcon 3008 multiwell plates in complete maintenance medium containing 10% FCS. After cells reached confluency (72 hr) the medium was changed daily for 3 days, each time being replaced with serum-free maintenance medium containing fresh ascorbic acid. Samples ([…]) were added to triplicate wells containing […] serum free MEM supplemented with fresh ascorbic acid and [^3 H]-proline (sp. act. 20 Ci/mmole), but no non-essential amino acids. After an additional 24 hours of culture, supernatants were reacted with protease-free bacterial collagenase to digest all collagen. Similar aliquots of unreacted supernatants and bacterial collagenase-treated supernatants were precipitated with cold 10% trichloroacetic acid (TCA) and were centrifuged for 5 minutes in a Beckman microfuge. Aliquots of the supernatants, after TCA precipitated proteins were pelleted, were placed in vials containing Hydrofluor and then were counted in a scintillation counter. CPM from TCA precipitated supernatants not reacted with bacterial collagenase were subtracted from each culture. The resulting CPM was a reflection of the collagen produced by that culture.
Collagen production was measured following administration of the various 7-mer peptides 368-374 (SEQ ID NOs. 1-5) to fibroblasts. Peptides […] (SEQ ID NO. 1), LYYIGKT (SEQ ID NO. 2), LYYVGRT (SEQ ID NO. 3), IYYVGRN (SEQ ID NO. 4) and IYYVGRT (SEQ ID NO. 5) were synthesized by the Merrifield technique, purified by HPLC, and tested at different concentrations in the same assay for their ability to stimulate production of collagen in confluent cultures of infant foreskin fibroblasts. Collagen production was measured by incorporation of [^3 H]proline into collagenase-sensitive protein. All samples were tested in triplicate, and values represent the mean of triplicate determinations. Data are expressed as "% stimulation" of collagen production relative to control production in cultures with plain culture medium only added. […]

[5] = Media added to upper compartment
[6] = TGF-β1 (50 pg/ml) added to upper compartment

Substance | Mean Fibroblasts per 20 OIF + SEM [1, 5] [Fibroblasts per 20 OIF] | Mean Fibroblasts per 20 OIF + SEM [1, 6] [Fibroblasts per 20 OIF] | fibroblast chemotaxis / migration (in words) [1] | monocyte chemotaxis / migration (in words) [2] | neutrophil chemotaxis / migration (in words) [3] | collagen production by fibroblasts (in words) [4]
Fibronectin [reference compound] | 74 ± 2 | 71 ± 6 |  |  |  | 
PIVYYVGRKPKVEQLSNMIVRS (PIVYYVGRKPKVEQLSNMIVRS) [Peptide 366-387] |  |  | induced migration of fibroblasts, monocytes and neutrophils in a dose dependent fashion | induced migration of fibroblasts, monocytes and neutrophils in a dose dependent fashion | induced migration of fibroblasts, monocytes and neutrophils in a dose dependent fashion | 
VPQALEPLPIVYYVGRKPKVEQLSN (VPQALEPLPIVYYVGRKPKVEQLSN) [Peptide 358-382] |  |  | induced migration of fibroblasts, monocytes and neutrophils in a dose dependent fashion | induced migration of fibroblasts, monocytes and neutrophils in a dose dependent fashion | induced migration of fibroblasts, monocytes and neutrophils in a dose dependent fashion | 
VSQDLEPLTILYYIGKTPKIEQLSNMIVKSC |  |  |  |  |  | stimulated collagen production
IYYVGRN [7-mer peptide 368-374 homolog] |  |  | induced fibroblast chemotaxis at all of the concentration tested | induced monocyte chemotaxis at all of the concentrations tested |  | stimulated collagen production to some degree
328-354: peptide derived from the N-terminal half of TGF-β1, residues 328-354 (PYIWSLDTQYSKVLALYNQHNPGASAA; printed: Pro Tyr Ile Trp Ser Leu Asp Thr Gln Tyr Ser Lys Val Leu Ala Leu Tyr Asn Gln His Asn Pro Gly Ala Ser Ala Ala) [Peptide 328-354] |  |  | none of the peptides derived from the N-terminal half of TGF-β1 (peptides 280-293, 296-322 and 328-354) were able to induce migration | none of the peptides derived from the N-terminal half of TGF-β1 (peptides 280-293, 296-322 and 328-354) were able to induce migration | none of the peptides derived from the N-terminal half of TGF-β1 (peptides 280-293, 296-322 and 328-354) were able to induce migration | 
IYYVGRT [7-mer peptide 368-374 homolog] |  |  | induced fibroblast chemotaxis at all of the concentration tested | induced monocyte chemotaxis at all of the concentrations tested |  | stimulated collagen production to some degree
280-293: peptide derived from the N-terminal half of TGF-β1, residues 280-293 (ALDTNYCFSSTEKN; printed: Ala Leu Asp Thr Asn Tyr Cys Phe Ser Ser Thr Glu Lys Asn) [Peptide 280-293] |  |  | none of the peptides derived from the N-terminal half of TGF-β1 (peptides 280-293, 296-322 and 328-354) were able to induce migration | none of the peptides derived from the N-terminal half of TGF-β1 (peptides 280-293, 296-322 and 328-354) were able to induce migration | none of the peptides derived from the N-terminal half of TGF-β1 (peptides 280-293, 296-322 and 328-354) were able to induce migration | 
TGF-β1: transforming growth factor β1, 50 pg/ml, chemoattractant control and deactivating agent [reference compound] | 7 ± 1 | 21 ± 2 |  |  |  | 
296-322: peptide derived from the N-terminal half of TGF-β1, residues 296-322 (VRQLYIDFRKDLGWKWIHEPKGYHANF; printed: Val Arg Gln Leu Tyr Ile Asp Phe Arg Lys Asp Leu Gly Trp Lys Trp Ile His Glu Pro Lys Gly Tyr His Ala Asn Phe) [Peptide 296-322] |  |  | none of the peptides derived from the N-terminal half of TGF-β1 (peptides 280-293, 296-322 and 328-354) were able to induce migration | none of the peptides derived from the N-terminal half of TGF-β1 (peptides 280-293, 296-322 and 328-354) were able to induce migration | none of the peptides derived from the N-terminal half of TGF-β1 (peptides 280-293, 296-322 and 328-354) were able to induce migration | 
LYYVGRT [7-mer peptide 368-374 homolog] |  |  | induced fibroblast chemotaxis at all of the concentration tested | induced monocyte chemotaxis at all of the concentrations tested |  | stimulated collagen production to some degree
